# Laboratory results: patent publication US11406707B2, “STAT3 phosphorylation during graft-versus-host disease” (H. LEE MOFFITT CANCER CENTER AND RESEARCH INSTITUTE, INC., priority 2014, dated 2022)
# What was measured:
# Foxp3 TSDR = assay: iTreg Foxp3 demethylation assay; assay type: cell-based, human; conditions: S3I-201 50 or 100 μM
# Excerpt: iTreg Foxp3 demethylation assay. […] (2013) J. Immunol. 190, 3180-3188; Miyao, T., et al. (2012) Immunity 36, 262-275]. The degree of Foxp3 TSDR demethylation among iTregs from DMSO-treated allo-MLRs, purified nTregs, and Tconvs served as the controls [[…]., et al. (2013) Blood 122(13):2251-61]. For these experiments, iTregs and nTregs were sorted to select the CD4^+ CD25^+ CD127^- population. PCR products were amplified by using methylation or demethylation specific TSDR forward and reverse primers from bisulphate-treated genomic DNA of sorted natural Tregs. DNA fragments were cloned into a pCR2.1-Topo vector (Life Technologies, Grand Island, N.Y., USA) and verified by DNA sequencing. The following TSDR primers and probes were used for PCR: methylation forward [NT] ID NO:1), reverse [NT] ID NO:2), and hydrolysis probe [NT] (SEQ ID NO:3); and demethylation forward [NT] ID NO:4), reverse [NT] ID NO:5), and hydrolysis probe [NT] ID NO:6). Standards were diluted at concentrations ranging from 2^7 to 2^3 plasmid copies of each methylation or demethylation TSDR. Genomic DNA was isolated by using the DNeasy Blood and Tissue kit (Qiagen, Valencia, Calif., USA) from sorted natural or expanded iTregs. Genomic DNA (200-500 ng) was treated with bisulfite from the EZ DNA Methylation-Gold Kit (Zymo Research, Irvine, Calif., USA). […]
# STAT3 [1] = biological target: T1, STAT3 (Homo sapiens, UniProt P40763); assay: IL-6-pulsed STAT3 phosphorylation in alloactivated T cells (flow cytometry); assay type: cell-based
# T1 construct: endogenous in cells; host or cells: primary human T cells from healthy-donor PBMC, allostimulated by monocyte-derived dendritic cells
# Excerpt: To confirm selective STAT3 inhibition, T cells were first briefly allostimulated by moDCs (DC:T cell ratio 1:30) and then pulsed with the relevant STAT3- or -5-dependent cytokine in the presence or absence of S3I-201. The 3-day exposure to allogenic moDCs allows the responding T cells to increase CD25 expression and capacity to receive IL-2 signaling, while resting or stimulated T cells phosphorylate STAT3 in response to IL-6 [Betts, B. C., et al. (2011) Blood 118, 5330-5339]. DC-allostimulated T cells (1×10^6) were then exposed to S3I-201 (50 or 100 μM) or DMSO for 4 h in serum-free RPMI (Corning Cellgro) to reduce background phosphorylation, followed by a 15 min pulse with IL-6 (4000 IU/ml) or -2 (50 IU/ml). T-cell STAT phosphorylation was determined by surface staining for CD3, followed by fixation (CytoFix; BD Biosciences), permeabilization with cold methanol, and intracellular staining for STAT3 and -5. The phosphorylated STAT3 and -5 geometric MFI ratio was calculated by dividing the geometric MFI of the cytokine-pulsed cells by the geometric MFI of the corresponding fluorochrome isotype.
# STAT3 [2] = biological target: T1, STAT3; assay: STAT3 phosphorylation in CD4+ T cells of 5 day allo-MLRs without exogenous cytokine; assay type: cell-based; conditions: S3I-201 50 or 100 μM, 5 day allo-MLR
# Description: (§1) No exogenous cytokine was added. DC-allosensitized T cells were harvested on day 5. […] The ratio of CD4^+, pSTAT5^Bright to CD4^+, pSTAT3^+ T cells was calculated by percentage of phosphorylation.
# T cells = assay: T-cell viability by Live/Dead staining in treated allo-MLRs; assay type: cell-based, human
# Description: Fluorochrome-conjugated mouse anti-human mAbs included anti-CD3, -CD4, -CD8, -CD25, -CD45RO, -CD107a, -CD127, -Foxp3, -pSTAT3/pY705, -pSTAT5/pY694, -IFN-, and -IL-17A (BD Biosciences, San Jose, Calif. USA; eBioscience; San Diego, Calif., USA; Invitrogen; Carlsbad, Calif., USA). Viability was assessed by Live/Dead staining (Invitrogen). Live events were acquired on FACSCalibur or LSRII (BD Biosciences) flow cytometers (FlowJo software, ver. 7.6.4; TreeStar, Ashland, Oreg., USA). Gates were defined by appropriate isotype controls. Naive T-cell sorting was performed on the FACSVantageDiVa (BD Biosciences). Where indicated, CD4^+ T cells were purified by magnetic-bead negative selection (Miltenyi Biotec, Auburn, Calif., USA).
# TH17 cells = assay: Evaluation of TH17 responses (CD4+ IL-17A+ T cells, IL-17A ELISA); assay type: cell-based, human
# Description: To optimize the detection of IL-17A producing cells, nylon-wool-purified T cells underwent CD4^+ magnetic-bead selection. The CD4^+ T cells were cultured in triplicate with allogeneic, mature moDCs (DC:T cell ratio 1:30, 1×10^6 T cells/1 ml medium in a 48-well plate, 37° C.) and treated with S3I-201 (50 or 100 μM) or DMSO. The medium was supplemented with IL-6 (10^5 IU/ml), TGF-β (4 ng/ml), and anti-IFN-γ mAb (10 μg/ml) to support TH17 growth. The T cells were harvested and stimulated with PMA/ionomycin for 5 h, with GolgiStop Protein Transport Inhibitor (BD Biosciences) added after 1 h of activation. TH17 cells were identified by surface CD3 and CD4 expression, followed by intracellular staining for IL-17A. The absolute number of IL-17A-producing CD4^+ T cells was obtained by timed acquisition.
# The concentration of IL-17A was measured (anti-human IL-17A [homodimer] ELISA Ready-Set-Go; eBioscience) in the supernatant of identically prepared and drug-treated CD4 T-cell allo-MLRs (DC:T cell ratio 1:30, 1.5×10^5 T cells per 125 μl medium in a 96-well plate, 37° C.). After 5 days, PMA/ionomycin was added directly to the cultures and stimulated for 5 h. GolgiStop was omitted from the PMA/ionomycin activation step, to permit detection of IL-17A in the culture supernatants. The supernatants were collected, and the IL-17A protein concentration was measured in triplicate, per the manufacturer's instructions.
# STAT5 = STAT5 phosphorylation in CD4+ T cells of 5 day allo-MLRs without exogenous cytokine; assay type: cell-based, human
# Description: as §1
# [3] = S3I-201 50 or 100 μM, 5 day coculture with IL-6, TGF-β, anti-IFN-γ mAb
# [4] = S3I-201 50 or 100 μM, 5 day allo-MLR
# T1 sequence (P40763 whole entry): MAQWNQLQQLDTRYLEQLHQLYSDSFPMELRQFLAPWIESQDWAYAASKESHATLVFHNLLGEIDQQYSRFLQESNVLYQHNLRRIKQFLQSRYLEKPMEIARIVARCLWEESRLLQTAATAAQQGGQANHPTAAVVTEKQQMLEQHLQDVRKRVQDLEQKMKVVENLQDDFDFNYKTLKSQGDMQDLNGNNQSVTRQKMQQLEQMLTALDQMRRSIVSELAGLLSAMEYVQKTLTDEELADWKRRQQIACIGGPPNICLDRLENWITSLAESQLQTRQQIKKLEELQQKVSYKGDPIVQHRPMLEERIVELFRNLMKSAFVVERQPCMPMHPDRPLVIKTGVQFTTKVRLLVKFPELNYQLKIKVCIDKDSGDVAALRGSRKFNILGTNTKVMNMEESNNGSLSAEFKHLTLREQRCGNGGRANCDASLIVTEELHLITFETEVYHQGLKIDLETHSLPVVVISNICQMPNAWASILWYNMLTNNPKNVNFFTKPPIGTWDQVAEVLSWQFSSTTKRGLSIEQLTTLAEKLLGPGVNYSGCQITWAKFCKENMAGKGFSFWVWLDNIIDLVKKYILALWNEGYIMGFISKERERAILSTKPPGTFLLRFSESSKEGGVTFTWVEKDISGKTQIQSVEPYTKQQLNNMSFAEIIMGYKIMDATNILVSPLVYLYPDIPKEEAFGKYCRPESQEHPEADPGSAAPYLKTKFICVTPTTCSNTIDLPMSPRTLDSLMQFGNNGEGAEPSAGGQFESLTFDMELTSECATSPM
smiles,measurement,setting,value
Cc1ccc(S(=O)(=O)OCC(=O)Nc2ccc(C(=O)O)c(O)c2)cc1 [S3I-201],iTreg Foxp3 demethylation compared with DMSO,Foxp3 TSDR,significantly enhanced
same,IL-6-mediated STAT3 signaling,"STAT3 [1]; S3I-201 50 and 100 μM, 4 h, 15 min IL-6 pulse",inhibited
same,concentration giving the highest degree of STAT3 inhibition selectivity,STAT3 [1]; STAT3 vs STAT5 phosphorylation,50 µM
same,STAT3 phosphorylation in CD4+ alloresponders,STAT3 [2],maintained on-target suppression
same,T-cell viability,T cells; S3I-201 50 μM,preserved
same,T-cell viability (viability staining),T cells; S3I-201 100 μM,toxicity
same,"absolute numbers of CD4+, IL-17A+ T cells compared with DMSO",TH17 cells; [3],significant reduction
same,"frequency of CD4+, IL-17A+ T cells compared with DMSO",TH17 cells; [3],significant reduction
same,IL-17A protein concentration in coculture supernatants,"TH17 cells; S3I-201, 5 day coculture, ELISA",significant decrease
same,"CD4+, pSTAT5Bright population",STAT5; S3I-201 100 μM,trend in reduced STAT5 phosphorylation
same,STAT5 activation in response to DC allostimuli,STAT5; [4],preserved
same,"ratio of CD4+, pSTAT5Bright to CD4+, pSTAT3+ T cells",STAT5; [4],"robust, dose-dependent polarization"
same,"CD4+, pSTAT5Bright population","STAT5; S3I-201 vs DMSO, 5 day allo-MLR",maintained
